Experiment [1] concerns the target T1, DCLK1-FL1Δ D511N (Homo sapiens, UniProt O15075, D511N).
T1 construct: DCLK1-FL1Δ (residues 50-686); 8XHis tag with TEV protease cleavage site (N); made in house; host or cells: Escherichia coli C41(DE3)
Briefly: SPR binding to immobilised DCLK1-FL1Δ D511N (non-phosphorylated). The following applies: for Kd / kon, kinetic fitting: SPR; for kon, kinetic fitting: DCLK1 FL1Δ D511N; for koff: read-out: koff, kinetic fitting; for kon: read-out: kon (Fig. 5c). The protocol: (§1) SPR studies were carried out on a Biacore 2000 instrument (Cytivia). Proteins were immobilised at 25 °C using standard amine coupling to a CM5 chip (Cytivia) in immobilisation buffer consisting of 10 mM HEPES pH 7.4, 150 mM NaCl, 1 mM TCEP, 0.005% Tween P20, 1% (v/v) DMSO. To the active flow, cells were coupled either DCLK1-FL1Δ D511N or WT to a final density of approximately 7000 RU, followed by surface deactivation with 1 M ethanolamine. For each protein, coupling was performed at a concentration of 2 µM protein in 10 mM sodium acetate buffer pH 4.0, 1% (v/v) DMSO final, in the presence 10 µM of the moderate affinity compound FMF-03-149-01 (IC50 ~400 nM)[28] to help to stabilise the kinase domain during immobilsiation at low pH. A blank immobilisation was performed on the reference flow cell.
(§2) Binding experiments were performed at 18 °C in running buffer consisting of 20 mM HEPES, pH 7.4, 150 mM NaCl, 1 mM tris(2-carboxyethyl)phosphine (TCEP), 0.005% (v/v) Tween-P20, and 2% (v/v) DMSO. Compounds (10 mM stocks in 100% DMSO) were diluted in DMSO to 500 µM (DCLK1-NEG) or 25 µM (all other compounds) then in running buffer (without DMSO) to achieve the starting concentration with a final DMSO concentration of 2% (v/v). Samples were then serially titrated in running buffer containing 2% (v/v) DMSO to prepare each final concentration series (seven-point, three-fold serial dilution, 10 µM−13.7 nM for DCLK1-NEG, or 500−0.68 nM for all other compounds). Solutions were injected in multi-cycle format (in duplicate) without regeneration (contact time 80 s, flow rate 75 μL/min, dissociation time 600 s), with an extra wash (50% DMSO) after each injection.
(§3) Steady-state/kinetic binding data were fitted using the S200 BIAevaluation software (GE Healthcare). Sensorgrams from reference surfaces and blank injections were subtracted from the raw data (double-referencing), followed by solvent correction. Kinetic rate constants (kon and koff values) were obtained by fitting to 1:1 Langmuir binding model. Reported binding data represent mean ± SEM for three or four independent experiments. The dissociative half-life life (t1/2) for each inhibitor complex with DCLK1 was calculated from the fitted dissociation rate constant (koff), according to the equation 1 (t1/2 = ln(2)/koff.)
For orientation: Surface plasmon resonance follows binding to a sensor surface in real time, without labels.

A further experiment concerns the target T2, DCLK1-FL1Δ WT (Homo sapiens, UniProt O15075).
T2 sequence (O15075 50-686 isoform O15075-2): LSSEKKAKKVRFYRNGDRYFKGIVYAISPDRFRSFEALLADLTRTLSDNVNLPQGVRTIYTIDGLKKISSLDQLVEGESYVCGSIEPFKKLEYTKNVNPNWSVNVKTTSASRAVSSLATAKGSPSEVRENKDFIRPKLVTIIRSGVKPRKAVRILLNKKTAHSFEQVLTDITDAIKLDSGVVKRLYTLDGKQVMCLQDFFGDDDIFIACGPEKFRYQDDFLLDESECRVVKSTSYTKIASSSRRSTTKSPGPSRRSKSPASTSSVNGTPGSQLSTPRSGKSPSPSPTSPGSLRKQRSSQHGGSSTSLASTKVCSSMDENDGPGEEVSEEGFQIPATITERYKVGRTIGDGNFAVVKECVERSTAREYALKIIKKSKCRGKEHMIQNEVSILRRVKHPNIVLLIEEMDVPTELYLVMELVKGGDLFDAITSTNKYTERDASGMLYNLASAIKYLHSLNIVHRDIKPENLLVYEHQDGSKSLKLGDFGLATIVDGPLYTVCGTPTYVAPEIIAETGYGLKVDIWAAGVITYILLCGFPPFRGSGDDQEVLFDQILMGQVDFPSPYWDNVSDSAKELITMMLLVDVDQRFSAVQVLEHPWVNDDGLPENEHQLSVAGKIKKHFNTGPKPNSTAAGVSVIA
Put plainly: SPR binding to immobilised DCLK1-FL1Δ WT (phosphorylated). As to conditions: for Kd / kon, kinetic fitting: SPR, mean ± SEM; for Kd: 18 °C, DCLK1 FL1Δ WT immobilised; for kon, kinetic fitting: DCLK1 FL1Δ WT; for koff: read-out: koff, kinetic fitting. As to the method:
as §1, §2, §3

The target in experiment [2] is T3, DCLK1-KD (residues 372-649) (Homo sapiens, UniProt O15075).
T3 construct: the DCLK1 kinase domain (DCLK1-KD; residues 372-649) by carrying out thermal stability assays; 8XHis tag with TEV protease cleavage site (N); made in house; host or cells: Escherichia coli C41(DE3)
T3 sequence (O15075 372-649 isoform O15075-2): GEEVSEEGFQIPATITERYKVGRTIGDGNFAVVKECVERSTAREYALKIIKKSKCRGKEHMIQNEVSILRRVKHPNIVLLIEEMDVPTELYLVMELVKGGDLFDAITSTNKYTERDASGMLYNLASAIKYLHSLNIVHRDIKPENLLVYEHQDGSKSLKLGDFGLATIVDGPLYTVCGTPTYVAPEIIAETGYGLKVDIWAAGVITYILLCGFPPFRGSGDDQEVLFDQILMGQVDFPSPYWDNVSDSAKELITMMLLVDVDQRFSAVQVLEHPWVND
Briefly: Thermal shift stability assay, DCLK1-KD. As to conditions: compound titration 2.5 to 40 μM. The class given is binding. As to the method:
(§4) DCLK1 proteins were diluted in 150 mM NaCl, 20 mM Tris pH 8.0, 1 mM DTT to […] final concentration and assayed with the appropriate concentration of inhibitor in a total reaction volume of 25 μL. SYPRO Orange (Molecular Probes) was used as a fluorescence probe and detected at 530 nm. The data shown are representative of two independent experiments.

The next experiment has as its system DCLK1. As to conditions: N-ethyl substitution at R4; cited from earlier work.
A further experiment deals with T4, DCLK1-KD G532V (Homo sapiens, UniProt O15075, G532V).
T4 construct: Truncated DCLK1 constructs, DCLK1-KD (residues 372-649); 8XHis tag with TEV protease cleavage site (N); made in house; host or cells: Escherichia coli C41(DE3)
T4 sequence (O15075 372-649 isoform O15075-2 G532V): T3 sequence (O15075 372-649 isoform O15075-2) with G161V
Briefly: Thermal shift stability assay, DCLK1-KD G532V. The class given is binding. As to conditions: XMD8-85 40 μM, versus DCLK1-KD WT. The protocol:
Thermal shift stability assays were performed as described previously. DCLK1 proteins were diluted in 150 mM NaCl, 20 mM Tris pH 8.0, 1 mM DTT to […] final concentration and assayed with the appropriate concentration of inhibitor in a total reaction volume of 25 μL. SYPRO Orange (Molecular Probes) was used as a fluorescence probe and detected at 530 nm. The data shown are representative of two independent experiments.

Experiment [3] has as its target T1, DCLK1-FL1Δ D511N. Put plainly: Thermal shift stability assay, DCLK1-FL1Δ D511N. The class given is binding. As to conditions: 40 μM. The protocol:
as §4

Experiment [4] concerns the target T5, DCLK1-FL1Δ D511N tubulin polymerisation (MAP function) (Homo sapiens, UniProt O15075, D511N).
T5 construct: DCLK1-FL1Δ (residues 50-686); 8XHis tag with TEV protease cleavage site (N); made in house; host or cells: Escherichia coli C41(DE3)
T5 sequence (O15075 50-686 isoform O15075-2 D511N): T2 sequence (O15075 50-686 isoform O15075-2) with D462N
Briefly: Tubulin polymerisation and pelleting assay with DCLK1-FL1Δ D511N. In kind it is biochemical. As to conditions: 40 μM, pelleting / SDS-PAGE (Fig. 5d). The protocol:
Tubulin polymerisation assays were performed in buffer containing 80 mM PIPES at pH 6.9, 2.0 mM MgCl2, 0.5 mM EGTA, 2.5 mM β,γ-Methyleneguanosine 5’-triphosphate, and 10 μM tubulin and 5 μM DCLK1 for 1 h at 37 °C. For tubulin polymerisation in the presence of inhibitors, various concentrations of the inhibitors were first incubated with DCLK1 and allowed to stand on ice for 5 min before adding this mix to the tubulin polymerisation reaction. Following the tubulin polymerisation, the reaction mix was pelleted at 20,000 g for 20 min and the supernatant and the pellet fractions were run on a 12% SDS gel. The data shown are representative of two independent experiments.

The target in experiment [5] is T5, DCLK1-FL1Δ D511N tubulin polymerisation (MAP function). Put plainly: Fluorescence-based Tubulin Polymerisation Assay with DCLK1-FL1Δ D511N. The class given is biochemical. The following applies: 80 μM, fluorescence (Fig. 5e). As to the method: Tubulin polymerisation assay were performed using the Microtubule Polymerisation/Depolymerisation Fluorescence Kit (Cytoskeleton #BK011P) in accordance with the manufacturer’s instructions. DCLK1 (4 μΜ) was added to 50 μL tubulin reaction mix containing Buffer 1 (80 mM PIPES at pH 6.9, 2.0 mM MgCl2, 0.5 mM EGTA, 10 μM fluorescent reporter), guanosine triphosphate stock solution at 100 mM, and tubulin (10 mg/ml) stock solution, as described by the manufacturer. Paclitaxel, a control of tubulin polymerisation, was tested at 3 μM, and Νocodazole, a tubulin polymerisation inhibitor, was tested at 80 μΜ. DCLK1-IN-1 was tested at 20 and 40 μΜ with buffer alone as controls. Polymerisation leads to fluorescence enhancement due to incorporation of a fluorescence reporter into polymerising microtubules and was measured by excitation at 355 nm and emission at 460 nm. Readings were taken every 20 s on EnVision Multimode Plate Reader. Each condition was tested in duplicate with two independent batches of protein.

The mark [6] stands for this setting: KD, kinetic fitting (1:1 binding model), 18 °C, DCLK1 FL1Δ D511N immobilised, mean ± SEM.
[7] abbreviates: KD, steady state fitting, 18 °C, DCLK1 FL1Δ D511N immobilised, mean ± SEM.
Setting [8] is: kinetic fitting (1:1 binding model).

The text below walks through data of paper PMC8452690, “Structural basis for small molecule targeting of Doublecortin Like Kinase 1 with DCLK1-IN-1” (Communications Biology, 2021).

Broadly, the Kd is a measure of binding affinity in units of concentration. The low end stands for tighter binding, the high end for weaker binding. One may read the koff as a measure of how fast the partners let go of each other. One may read the kon as the second-order rate constant of association.

Where a chain is given by its changes, count along the chain named. Marks after values point to notes of the source that are not given here.

T1 sequence (O15075 50-686 D511N): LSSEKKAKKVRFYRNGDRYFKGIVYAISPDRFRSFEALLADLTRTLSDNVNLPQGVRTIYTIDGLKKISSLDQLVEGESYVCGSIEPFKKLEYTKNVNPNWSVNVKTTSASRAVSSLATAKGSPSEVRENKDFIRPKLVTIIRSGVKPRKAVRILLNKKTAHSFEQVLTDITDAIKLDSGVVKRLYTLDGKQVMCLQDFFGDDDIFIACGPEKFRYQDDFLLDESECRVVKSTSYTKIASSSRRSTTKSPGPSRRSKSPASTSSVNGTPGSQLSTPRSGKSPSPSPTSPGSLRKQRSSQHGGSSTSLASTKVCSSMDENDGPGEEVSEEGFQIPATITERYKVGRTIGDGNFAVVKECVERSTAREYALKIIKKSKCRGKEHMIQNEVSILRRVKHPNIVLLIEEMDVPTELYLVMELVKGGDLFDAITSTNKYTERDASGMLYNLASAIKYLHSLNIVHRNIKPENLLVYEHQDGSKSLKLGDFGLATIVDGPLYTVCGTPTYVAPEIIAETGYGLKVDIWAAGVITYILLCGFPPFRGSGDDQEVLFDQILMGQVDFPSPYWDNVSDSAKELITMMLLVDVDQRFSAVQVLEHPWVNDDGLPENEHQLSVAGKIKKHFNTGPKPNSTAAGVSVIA

Take `COc1cc(N2CCN(C)CC2)ccc1Nc1ncc2c(n1)N(C)c1ccc(C)cc1C(=O)N2CC(F)(F)F` [DCLK1-NEG]: the Kd was over 10000 nM at DCLK1-FL1Δ D511N [1] (KD (weak binding to DCLK1), top concentration 10 µM) and over 10000 nM on DCLK1-FL1Δ WT (steady state fitting). Besides, the “binding by shift in melting temperature (ΔTm)” value in experiment [2] is “severely reduced binding to DCLK1-KD”.

For the compound `CCN1C(=O)c2ccccc2N(C)c2nc(Nc3ccc(N4CCN(C)CC4)cc3OC)ncc21` [FMF-03-055-1], the dissociation constant (Kd) came out at 13 nM at DCLK1-FL1Δ D511N [1] (setting [6]), 24 ± 1 nM at DCLK1-FL1Δ D511N [1] (setting [7]), 12 ± 2 nM at DCLK1-FL1Δ WT (setting [8]) and 28 ± 2 nM on DCLK1-FL1Δ WT (steady state fitting). The “kon, kinetic fitting” value at DCLK1-FL1Δ D511N [1] (mean ± SEM) was 11 ± 4 1/Ms (x 10^5); on DCLK1-FL1Δ WT it was 9.6 ± 0.6 1/Ms (x 10^5). In addition, the koff is 0.014 ± 0.006 s⁻¹ at DCLK1-FL1Δ D511N [1] and 0.011 ± 0.001 s⁻¹ at DCLK1-FL1Δ WT. For the same compound, the kon at DCLK1-FL1Δ D511N [1] stood at 1.1e+06 ± 400000 M⁻¹ s⁻¹. For the same compound, in the experiment on DCLK1, the “enhanced potency on DCLK1 compared to XMD8-85” value is recorded as 5 fold.

As for `COc1cc(N2CCN(C)CC2)ccc1Nc1ncc2c(n1)N(C)c1ccccc1C(=O)N2C` [XMD8-85], the Kd on DCLK1-FL1Δ D511N [1] (setting [6]) turned out to be 8 nM; on DCLK1-FL1Δ D511N [1] (setting [7]), 14 ± 1 nM; at DCLK1-FL1Δ WT (setting [8]), 7.5 ± 0.3 nM; at DCLK1-FL1Δ WT (steady state fitting) it was 12 ± 2 nM. Besides, the entries for the “kon, kinetic fitting” value at DCLK1-FL1Δ D511N [1] (mean ± SEM) and on DCLK1-FL1Δ WT were 12.8 ± 0.5 1/Ms (x 10^5) and 22 ± 2 1/Ms (x 10^5), respectively. For the same compound, the koff is 0.01 ± 0.001 s⁻¹ on DCLK1-FL1Δ D511N [1] and 0.016 ± 0.001 s⁻¹ on DCLK1-FL1Δ WT. Also, the kon on DCLK1-FL1Δ D511N [1] was 1.28e+06 ± 50000 M⁻¹ s⁻¹. In addition, the “binding by shift in melting temperature (ΔTm)” value in experiment [2] was “bind DCLK1-KD”. In addition, the “effect of Gly532 to valine mutation on binding affinity” value at DCLK1-KD G532V was “considerably reduces XMD8-85 binding affinity”.

Consider `COC(=O)Nc1nc2ccc(C(=O)c3cccs3)cc2[nH]1` [nocodazole], for which the “binding to DCLK1 by thermal stability assay” value on DCLK1-FL1Δ D511N [3] is recorded as “does not bind”. Also, the “effect on tubulin polymerisation” value in experiment [4] and in experiment [5] was “inhibits tubulin polymerisation” each time.
